Data taken from the supplement of paper PMC6045584.

These test systems were tested with COc1ccc(C2=N[C@@H](c3ccc(Cl)cc3)[C@@H](c3ccc(Cl)cc3)N2C(=O)N2CCNC(=O)C2)c(OC(C)C)c1 [NUTLIN3] (assay: area under dose-response curve of surviving fraction (unscaled, Aref=0) (surviving fraction x log10(nM)); higher = more resistant). Details: exposure time: 5 days; dose range 0.5-1000 nM.
Summary of the method: (§1)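 Tumour cell lines in 384-well plates were exposed to eight inhibitor concentrations, from 0.5 to 1000 nM, for five days, and viability was read by CellTiter-Glo luminescence in three screens per line. Signals were normalised to DMSO-only wells, and 3-parameter logistic regression in the drc R package fitted dose-response survival curves to the surviving fractions. Area under the curve is given as the unscaled activity area. That area is taken over log10 dose with Aref = 0.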

Compared with HELA CERVIX, CAL72 BONE is higher in “area under dose-response curve” value: 3.38 for the first, 3.61 for the second.

Compared with MDAMB134 BREAST, C33A CERVIX is lower in “area under dose-response curve” value: 3.16 for the first, 3.13 for the second.

Compared with SKBR3 BREAST, MHM BONE is higher in “area under dose-response curve” value: 2.96 for the first, 3.28 for the second.

Going from SYO1 SYNOVIAL to KPD BONE, the “area under dose-response curve” value rises from 2.9 to 3.29.

Compared with DU4475 BREAST, COLO320DM LARGE INTESTINE is higher in “area under dose-response curve” value: 3.2 for the first, 4.13 for the second.

Compared with T47D BREAST, H23 LUNG is higher in “area under dose-response curve” value: 3.35 for the first, 3.42 for the second.

Going from SCC90 HEADNECK to MG63 BONE, the “area under dose-response curve” value falls from 3.5 to 3.4.

In the case of A549 LUNG, the “area under dose-response curve” value is reported as 3.26.

Each test system was assayed with COc1cccc2c1C(=O)c1c(O)c3c(c(O)c1C2=O)C[C@@](O)(C(=O)CO)C[C@@H]3O[C@H]1C[C@H](N)[C@H](O)[C@H](C)O1 [DOXORUBICIN] in the same assay as above. Details: exposure time: 5 days; dose range 0.5-1000 nM.
Summary of the method: as §1

First: HCC1806 BREAST
Second: HU09 BONE
The “area under dose-response curve” value of the first is lower: 1.3 for the first, 1.38 for the second.

Going from HOSMNG BONE to CASKI CERVIX, the “area under dose-response curve” value falls from 2.25 to 0.836.

Compared with MDAMB231 BREAST, CAL51 BREAST is lower in “area under dose-response curve” value: 2.1 for the first, 1.48 for the second.

Compared with MDAMB436 BREAST, HSSYII SYNOVIAL is lower in “area under dose-response curve” value: 2.04 for the first, 0.844 for the second.

Compared with CAL120 BREAST, MCF7 BREAST is higher in “area under dose-response curve” value: 1.87 for the first, 1.99 for the second.

First: MFM223 BREAST
Second: PCI30 HEADNECK
The “area under dose-response curve” value of the first is lower: 2 for the first, 2.03 for the second.

First: HOS BONE
Second: JIMT1 BREAST
The “area under dose-response curve” value of the first is lower: 1.25 for the first, 2.21 for the second.

Going from LM7 BONE to SUM149 BREAST, the “area under dose-response curve” value falls from 1.78 to 1.11.

First: MDAMB361 BREAST
Second: SAOS2 BONE
The “area under dose-response curve” value of the first is higher: 2.58 for the first, 1.85 for the second.

Compared with HCC1954 BREAST, HELA CERVIX is lower in “area under dose-response curve” value: 1.78 for the first, 1.69 for the second.

Going from CAL72 BONE to MDAMB134 BREAST, the “area under dose-response curve” value rises from 1.9 to 2.35.

Compared with C33A CERVIX, SKBR3 BREAST is higher in “area under dose-response curve” value: 1.46 for the first, 1.72 for the second.

First: MHM BONE
Second: SYO1 SYNOVIAL
The “area under dose-response curve” value of the first is higher: 2.66 for the first, 0.851 for the second.

Going from KPD BONE to DU4475 BREAST, the “area under dose-response curve” value falls from 1.78 to 0.979.

Compared with COLO320DM LARGE INTESTINE, T47D BREAST is lower in “area under dose-response curve” value: 3.07 for the first, 2.13 for the second.

Going from H23 LUNG to SCC90 HEADNECK, the “area under dose-response curve” value rises from 1.79 to 2.36.

First: MG63 BONE
Second: A549 LUNG
The “area under dose-response curve” value of the first is lower: 1.9 for the first, 2.25 for the second.

These test systems were tested with CS(=O)(=O)CCNCc1ccc(-c2ccc3ncnc(Nc4ccc(OCc5cccc(F)c5)c(Cl)c4)c3c2)o1 [LAPATINIB] in the same assay as above. Details: exposure time: 5 days; dose range 0.5-1000 nM.
Summary of the method: as §1

Compared with HCC1806 BREAST, HU09 BONE is higher in “area under dose-response curve” value: 3.15 for the first, 3.23 for the second.

Going from HOSMNG BONE to CASKI CERVIX, the “area under dose-response curve” value falls from 3.02 to 2.48.

Going from MDAMB231 BREAST to CAL51 BREAST, the “area under dose-response curve” value rises from 3.27 to 3.37.

First: MDAMB436 BREAST
Second: HSSYII SYNOVIAL
The “area under dose-response curve” value of the first is lower: 3.11 for the first, 3.2 for the second.

First: CAL120 BREAST
Second: MCF7 BREAST
The “area under dose-response curve” value of the first is higher: 3.34 for the first, 3.11 for the second.

Compared with MFM223 BREAST, PCI30 HEADNECK is higher in “area under dose-response curve” value: 3.48 for the first, 3.52 for the second.

Compared with HOS BONE, JIMT1 BREAST is lower in “area under dose-response curve” value: 3.45 for the first, 3.27 for the second.

Compared with LM7 BONE, SUM149 BREAST is lower in “area under dose-response curve” value: 3.39 for the first, 2.56 for the second.

First: MDAMB361 BREAST
Second: SAOS2 BONE
The “area under dose-response curve” value of the first is lower: 2.68 for the first, 3.95 for the second.

Going from HCC1395 BREAST to HCC1954 BREAST, the “area under dose-response curve” value falls from 3.36 to 2.76.

Going from HELA CERVIX to CAL72 BONE, the “area under dose-response curve” value falls from 3.7 to 3.63.

Going from MDAMB134 BREAST to C33A CERVIX, the “area under dose-response curve” value falls from 3.79 to 2.92.

Going from SKBR3 BREAST to MHM BONE, the “area under dose-response curve” value rises from 2.38 to 3.38.

Going from SYO1 SYNOVIAL to KPD BONE, the “area under dose-response curve” value rises from 3.2 to 3.44.

Compared with DU4475 BREAST, COLO320DM LARGE INTESTINE is higher in “area under dose-response curve” value: 3.33 for the first, 3.66 for the second.

Going from T47D BREAST to H23 LUNG, the “area under dose-response curve” value falls from 3.39 to 2.77.

Going from SCC90 HEADNECK to MG63 BONE, the “area under dose-response curve” value rises from 2.81 to 3.5.

In the case of A549 LUNG, the “area under dose-response curve” value is reported as 3.47.

Each test system was assayed with CS(=O)(=O)c1ccc(C(=O)Nc2ccc(Cl)c(-c3ccccn3)c2)c(Cl)c1 [VISMODEGIB] in the same assay as above. Details: exposure time: 5 days; dose range 0.5-1000 nM.
Summary of the method: as §1

Going from HCC1806 BREAST to HU09 BONE, the “area under dose-response curve” value falls from 3.23 to 3.11.

Going from HOSMNG BONE to CASKI CERVIX, the “area under dose-response curve” value falls from 3.19 to 3.06.

Compared with MDAMB231 BREAST, CAL51 BREAST is higher in “area under dose-response curve” value: 3.04 for the first, 3.09 for the second.

Compared with MDAMB436 BREAST, HSSYII SYNOVIAL is higher in “area under dose-response curve” value: 2.81 for the first, 2.83 for the second.

Compared with CAL120 BREAST, MCF7 BREAST is lower in “area under dose-response curve” value: 3.26 for the first, 2.99 for the second.

First: MFM223 BREAST
Second: PCI30 HEADNECK
The “area under dose-response curve” value of the first is higher: 3.12 for the first, 3.04 for the second.

Compared with HOS BONE, JIMT1 BREAST is lower in “area under dose-response curve” value: 3.34 for the first, 3 for the second.

Compared with LM7 BONE, SUM149 BREAST is lower in “area under dose-response curve” value: 3.28 for the first, 2.98 for the second.

Going from MDAMB361 BREAST to SAOS2 BONE, the “area under dose-response curve” value rises from 2.31 to 3.12.

First: HCC1395 BREAST
Second: HCC1954 BREAST
The “area under dose-response curve” value of the first is higher: 2.48 for the first, 2.26 for the second.

Going from HELA CERVIX to CAL72 BONE, the “area under dose-response curve” value falls from 3.49 to 3.17.

Going from MDAMB134 BREAST to C33A CERVIX, the “area under dose-response curve” value rises from 2.56 to 3.15.

First: SKBR3 BREAST
Second: MHM BONE
The “area under dose-response curve” value of the first is lower: 3.07 for the first, 3.42 for the second.

In the case of SYO1 SYNOVIAL, the “area under dose-response curve” value is reported as 3.
